Values joined by “and” are separate entries in the source; they are usually repeats but may differ in a detail not shown here. Equal entries are not always repeated. Values belong to the compound of their own block, whether it stands above or below them.
Test system: 422866-222-R5-J1-PDC spheroid viability
Assay: Anticancer human tumor 422866-222-R5-J1-PDC patient-derived pancreatic adenocarcinoma cell line growth inhibition [CLK]
Details: spheroids with HUVEC and MSC; for viability, T/C: stronger effect = lower value
Method in brief: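 Patient-derived tumor cells grown as complex spheroids with HUVEC endothelial cells and mesenchymal stem cells, treated with drug combinations. Concentrations descend in half-log steps from near clinical Cmax, or from 10 microM if Cmax unknown.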

[1] = curve of first compound, second compound 0.0316 µM
[2] = curve of first compound, second compound 0.1 µM
[3] = curve of first compound, second compound 0.316 µM
[4] = curve of first compound, second compound 1 µM
[5] = curve of first compound, second compound 3.16 µM
[6] = curve of first compound, second compound 10 µM
[7] = second compound 0.0316 µM, first compound 0.0316 µM
[8] = second compound 0.0316 µM, first compound 0.1 µM
[9] = second compound 0.0316 µM, first compound 0.316 µM
[10] = second compound 0.0316 µM, first compound 1 µM
[11] = second compound 0.0316 µM, first compound 3.16 µM
[12] = second compound 0.0316 µM, first compound 10 µM
[13] = second compound 0.1 µM, first compound 0.0316 µM
[14] = second compound 0.1 µM, first compound 0.1 µM
[15] = second compound 0.1 µM, first compound 0.316 µM
[16] = second compound 0.1 µM, first compound 1 µM
[17] = second compound 0.1 µM, first compound 3.16 µM
[18] = second compound 0.1 µM, first compound 10 µM
[19] = second compound 0.316 µM, first compound 0.0316 µM
[20] = second compound 0.316 µM, first compound 0.1 µM
[21] = second compound 0.316 µM, first compound 0.316 µM
[22] = second compound 0.316 µM, first compound 1 µM
[23] = second compound 0.316 µM, first compound 3.16 µM
[24] = second compound 0.316 µM, first compound 10 µM
[25] = second compound 1 µM, first compound 0.0316 µM
[26] = second compound 1 µM, first compound 0.1 µM
[27] = second compound 1 µM, first compound 0.316 µM
[28] = second compound 1 µM, first compound 1 µM
[29] = second compound 1 µM, first compound 3.16 µM
[30] = second compound 1 µM, first compound 10 µM
[31] = second compound 3.16 µM, first compound 0.0316 µM
[32] = second compound 3.16 µM, first compound 0.1 µM
[33] = second compound 3.16 µM, first compound 0.316 µM
[34] = second compound 3.16 µM, first compound 1 µM
[35] = second compound 3.16 µM, first compound 3.16 µM
[36] = second compound 3.16 µM, first compound 10 µM
[37] = second compound 10 µM, first compound 0.0316 µM
[38] = second compound 10 µM, first compound 0.1 µM
[39] = second compound 10 µM, first compound 0.316 µM
[40] = second compound 10 µM, first compound 1 µM
[41] = second compound 10 µM, first compound 3.16 µM
[42] = second compound 10 µM, first compound 10 µM
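Also: spheroids exposed to agents for seven days before readout.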

IC50 [1]: > 10 µM
IC50 [2]: > 10 µM
IC50 [3]: > 10 µM
IC50 [4]: > 10 µM
IC50 [5]: > 10 µM
IC50 [6]: > 10 µM
SMILES: CC1(C)CCC(CN2CCN(c3ccc(C(=O)NS(=O)(=O)c4ccc(NCC5CCOCC5)c([N+](=O)[O-])c4)c(Oc4cnc5[nH]ccc5c4)c3)CC2)=C(c2ccc(Cl)cc2)C1 + CNC(=O)c1ccc(Nc2nc(OC3CCCC3)c3c(-c4ccc5nc(C)oc5c4)c[nH]c3n2)c(OC)c1
viability, T/C [7]: 115%
viability, T/C [8]: 87.5%
viability, T/C [9]: 93.9%
viability, T/C [10]: 119%
viability, T/C [11]: 131%
viability, T/C [12]: 93.4%
viability, T/C [13]: 114%
viability, T/C [14]: 90%
viability, T/C [15]: 98.7%
viability, T/C [16]: 100%
viability, T/C [17]: 114%
viability, T/C [18]: 81.3%
viability, T/C [19]: 84.6%
viability, T/C [20]: 71.9%
viability, T/C [21]: 70.1%
viability, T/C [22]: 75.7%
viability, T/C [23]: 86.6%
viability, T/C [24]: 78%
viability, T/C [25]: 75.3%
viability, T/C [26]: 76.4%
viability, T/C [27]: 76%
viability, T/C [28]: 70.7%
viability, T/C [29]: 66%
viability, T/C [30]: 57.1%
viability, T/C [31]: 65.2%
viability, T/C [32]: 76.6%
viability, T/C [33]: 66.4%
viability, T/C [34]: 67.7%
viability, T/C [35]: 76.8%
viability, T/C [36]: 79.5%
viability, T/C [37]: 60.3%
viability, T/C [38]: 62.4%
viability, T/C [39]: 61%
viability, T/C [40]: 56.6%
viability, T/C [41]: 78.1%
viability, T/C [42]: 84.3%

SMILES: Nc1ccccc1NC(=O)c1ccc(CNC(=O)OCc2cccnc2)cc1 + CN1CCN(c2cc(C(=O)Nc3cc4cc(-c5cnn(C)c5)ccc4cn3)ccn2)CC1
IC50 [1]: > 10 µM
IC50 [2]: > 10 µM
IC50 [3]: 2.38 µM
IC50 [4]: < 0.0316 µM
IC50 [5]: < 0.0316 µM
IC50 [6]: < 0.0316 µM
viability, T/C [7]: 121%
viability, T/C [8]: 137%
viability, T/C [9]: 121%
viability, T/C [10]: 114%
viability, T/C [11]: 75.8%
viability, T/C [12]: 60.4%
viability, T/C [13]: 135%
viability, T/C [14]: 118%
viability, T/C [15]: 121%
viability, T/C [16]: 96.6%
viability, T/C [17]: 74.5%
viability, T/C [18]: 62.6%
viability, T/C [19]: 106%
viability, T/C [20]: 95.5%
viability, T/C [21]: 91.1%
viability, T/C [22]: 62.5%
viability, T/C [23]: 46.9%
viability, T/C [24]: 19.5%
viability, T/C [25]: 28.4%
viability, T/C [26]: 28.6%
viability, T/C [27]: 25.6%
viability, T/C [28]: 16.1%
viability, T/C [29]: 4.32%
viability, T/C [30]: 5.2%
viability, T/C [31]: 8.75%
viability, T/C [32]: 8.34%
viability, T/C [33]: 4.74%
viability, T/C [34]: 4.04%
viability, T/C [35]: 3.26%
viability, T/C [36]: 8.29%
viability, T/C [37]: 2.62%
viability, T/C [38]: 1.81%
viability, T/C [39]: 1.37%
viability, T/C [40]: 1.01%
viability, T/C [41]: 2.34%
viability, T/C [42]: 4.45%

IC50 (curve of compound): 0.308 µM and 0.113 µM
SMILES: CC(Nc1ccc2c(c1)OCCn1cc(N3C(=O)OCC3C(F)F)nc1-2)C(N)=O (centres undefined)
viability, T/C (compound 0.0316 µM): 76.1% and 62.1%
viability, T/C (compound 0.1 µM): 67.9% and 53.8%
viability, T/C (compound 0.316 µM): 46.1% and 36.7%
viability, T/C (compound 1 µM): 42.5% and 38.5%
viability, T/C (compound 3.16 µM): 34.2% and 31.7%
viability, T/C (compound 10 µM): 32% and 27.6%

IC50 (curve of compound): > 0.1 µM
SMILES: Cn1ncnc1[C@H]1c2n[nH]c(=O)c3cc(F)cc(c23)N[C@@H]1c1ccc(F)cc1
viability, T/C (compound 0.000316 µM): 86.9% and 103%
viability, T/C (compound 0.001 µM): 110% and 95.5%
viability, T/C (compound 0.00316 µM): 97% and 99.8%
viability, T/C (compound 0.01 µM): 101% and 87.8%
viability, T/C (compound 0.0316 µM): 91.4%
viability, T/C (compound 0.1 µM): 85% and 87.1%

IC50 [1]: > 10 µM
IC50 [2]: > 10 µM
IC50 [3]: > 10 µM
IC50 [4]: 2.18 µM
IC50 [5]: > 10 µM
IC50 [6]: 3.11 µM
SMILES: O=c1[nH]cc(F)c(=O)[nH]1 + CNC(=O)c1ccc(Nc2nc(OC3CCCC3)c3c(-c4ccc5nc(C)oc5c4)c[nH]c3n2)c(OC)c1
viability, T/C [7]: 102%
viability, T/C [8]: 103%
viability, T/C [9]: 89.9%
viability, T/C [10]: 91.2%
viability, T/C [11]: 82.2%
viability, T/C [12]: 72.5%
viability, T/C [13]: 100%
viability, T/C [14]: 98.1%
viability, T/C [15]: 86%
viability, T/C [16]: 78.1%
viability, T/C [17]: 87%
viability, T/C [18]: 78.3%
viability, T/C [19]: 79.3%
viability, T/C [20]: 79.7%
viability, T/C [21]: 68.9%
viability, T/C [22]: 61.7%
viability, T/C [23]: 58.3%
viability, T/C [24]: 57.2%
viability, T/C [25]: 68.2%
viability, T/C [26]: 67.1%
viability, T/C [27]: 51.6%
viability, T/C [28]: 54.2%
viability, T/C [29]: 51%
viability, T/C [30]: 44.5%
viability, T/C [31]: 58.3%
viability, T/C [32]: 78.6%
viability, T/C [33]: 73.1%
viability, T/C [34]: 56.8%
viability, T/C [35]: 52.5%
viability, T/C [36]: 49.4%
viability, T/C [37]: 60.6%
viability, T/C [38]: 63.7%
viability, T/C [39]: 70%
viability, T/C [40]: 57.7%
viability, T/C [41]: 46.4%
viability, T/C [42]: 53.5%

IC50 [1]: > 10 µM
IC50 [2]: > 10 µM
IC50 [3]: > 10 µM
IC50 [4]: > 10 µM
IC50 [5]: > 10 µM
IC50 [6]: > 10 µM
SMILES: CC(CO)NC(=O)c1cc(-c2ccc(Cl)cc2)nn(-c2cnn(C)c2)c1=O (centres undefined) + CNC(=O)c1ccc(Nc2nc(OC3CCCC3)c3c(-c4ccc5nc(C)oc5c4)c[nH]c3n2)c(OC)c1
viability, T/C [7]: 91%
viability, T/C [8]: 112%
viability, T/C [9]: 112%
viability, T/C [10]: 114%
viability, T/C [11]: 77.2%
viability, T/C [12]: 81.7%
viability, T/C [13]: 113%
viability, T/C [14]: 97.3%
viability, T/C [15]: 109%
viability, T/C [16]: 98.9%
viability, T/C [17]: 74.9%
viability, T/C [18]: 78.1%
viability, T/C [19]: 73.2%
viability, T/C [20]: 73.8%
viability, T/C [21]: 72.6%
viability, T/C [22]: 73.5%
viability, T/C [23]: 72.2%
viability, T/C [24]: 66.8%
viability, T/C [25]: 74.8%
viability, T/C [26]: 64.2%
viability, T/C [27]: 66.2%
viability, T/C [28]: 55.1%
viability, T/C [29]: 57.5%
viability, T/C [30]: 61.8%
viability, T/C [31]: 56.3%
viability, T/C [32]: 60.8%
viability, T/C [33]: 57.2%
viability, T/C [34]: 61.8%
viability, T/C [35]: 51.5%
viability, T/C [36]: 50.2%
viability, T/C [37]: 55.6%
viability, T/C [38]: 63.4%
viability, T/C [39]: 67%
viability, T/C [40]: 60.4%
viability, T/C [41]: 60.9%
viability, T/C [42]: 56.4%

IC50 (curve of compound): < 0.0316 µM
SMILES: C=CC(=O)N1CCN(c2nc(=O)n(-c3c(C)ccnc3C(C)C)c3nc(-c4c(O)cccc4F)c(F)cc23)C(C)C1 (centres undefined)
viability, T/C (compound 0.0316 µM): 33% and 35.7%
viability, T/C (compound 0.1 µM): 27% and 28.4%
viability, T/C (compound 0.316 µM): 24.9% and 25.6%
viability, T/C (compound 1 µM): 27.6% and 25.6%
viability, T/C (compound 3.16 µM): 32.8% and 25.4%
viability, T/C (compound 10 µM): 25.2% and 30%
